# Reference: patent US20220296610A1, “COMPOSITIONS AND METHODS FOR TREATMENT OF INFECTION AND NOVEL COSMECEUTICAL PREPARATIONS” (priority 2017, published 2022)
# “And” between values parts separate entries of the source, which are not always exact repeats. Equal entries are not always repeated. “Also recorded” adds a separate entry of the source.
# Key:
# human keratinocytes = experiment: Survival of keratinocyte cultures at 80% and 30% confluency; format: cell-based; conditions: 2.5 μM; 30% vs 80% confluency
# Method: (§1) All cells were treated with 2.5 μM NVX-207. Percentage (means±S.E., n=3) of control-treated cells are given. […] Mean survival in NVX-207 treated fibroblasts at 80% confluency was 92% (S.E.=3.8) versus 3.8% mean survival (S.E.=0.4) at 30% confluency. […] HUVECs, keratinocytes and fibroblast cells were obtained from Lonza GmbH (Wuppertal, Germany) and cultivated according to the manufacturer's instructions.
# (§2) The IC50 value of betulinic acid in human keratinocytes was recently determined to be ˜5.0 μg/ml (Tino Galgon al., Exp Dermatol. 14:736-43, 2005), while the IC50 of NVX-207 is ˜0.7 μg/ml. Consequently, the IC50 value of NVX-207 was almost 10-fold lower compared to betulinic acid on a molar basis. […] Under normal physiological circumstances, the endothelium, as well as fibroblasts and keratinocytes of the tissue like normal skin, show relatively low turn-over and limited cell divisions to maintain tissue integrity. […] Angiogenesis also plays a role in the pathogenesis of rosacea and a topical angiogenesis inhibitor (dobesilate) for treatment of rosacea has been described. Local inhibition of angiogenic factors function may prevent skin angiogenesis and inflammation in rosacea and other angiogenesis-dependent skin diseases in which a dense network of new vessels is produced and inflammatory cells are present. […]
# canine cancer patients = experiment: Inflammation and infection after repeated intralesional injections in dogs; format: in vivo, dog; conditions: intratumoral treatment of canine malignancies
# Description: FIGS. 3A-D show the effects of intratumoral treatment of NVX-207 in various spontaneously arising canine malignancies (before and after pictures). […] FIGS. 3B-D show NVX-207 treatment effects in a canine mammary carcinoma and two separate cases of soft tissue sarcoma, respectively. […] Microbial infections (with bacteria, fungi, viruses or protozoa) usually almost invariably accompany multiple injections under similar non-sterile conditions, because the coat of the animal cannot be efficiently sterilized. This in turn leads to unwanted treatment interruptions.
# FIGS. 3B-D show NVX-207 treatment effects in a canine mammary carcinoma and two separate cases of soft tissue sarcoma, respectively. […] Microbial infections (with bacteria, fungi, viruses or protozoa) usually almost invariably accompany multiple injections under similar non-sterile conditions, because the coat of the animal cannot be efficiently sterilized. This in turn leads to unwanted treatment interruptions.
# As noted above, strong evidence for an antibacterial activity of NVX-207 also comes from the canine cancer treatments. Dogs were treated over several months by repeated intralesional and peritumoral injections of NVX-207. […] This is highly unusual, since intralesional treatments under the same conditions are usually associated with a high incidence of serious local soft tissue infections leading to treatment interruptions. […]
# [1] = test system: human umbilical vein endothelial cells (HUVEC); experiment: Survival of endothelial cell cultures at 80% and 30% confluency; format: cell-based; conditions: 2.5 μM
# Method: as §1, §2
# pig skin = conditions: in vivo, 2 weeks
# Description: Skin areas were visually inspected every day.
# Skin areas were visually inspected every day. Photographs were taken at three day intervals. […] On day 14, pigs were anesthetized with ketamine and azaperon, and euthanized by intracardial application of T61®.
# [2] = test system: Sweat gland adenocarcinoma; experiment: Intratumoral treatment of canine cancer patient, sweat gland adenocarcinoma; format: in vivo, dog; conditions: Patient #4, NVX-207 alone 10 mg/ml in 2-hydroxypropyl-γ-cyclodextrin
# Method: (§3) A study was performed using NVX-207 on a canine squamous cell carcinoma of the nasal plane. […] Histology was confirmed by biopsy before treatment. Prior to each treatment, the dog was physically examined and routine blood counts and serum chemistry analyses were performed. Tumor measurements were obtained using callipers at each treatment. Tumor size was determined by the longest diameter of the target lesion or by calculating the mean of the longest diameters of the lesion treated. Tumor response was classified as stable (less than 50% change), partial—(decrease by >50%) or as a complete response if no palpable or visible evidence of tumor was available. Intralesional treatment of the patient comprised local infiltration of the local tumor, including 1 cm of the surrounding tissue, with NVX-207 in combination with cisplatin. […] Tumor recurrence was observed 18 months later. […] No further complications were observed.
# (§4) Patients 1, 2, and 3 correspond to the dogs described above with squamous, soft tissue, and mammary carcinoma, respectively. Tumor size and tumor responses were determined as in described above. Intralesional treatment of the patients comprised local infiltration of the local tumor including 1 cm of the surrounding tissue—if applicable—with NVX-207 alone (for patients #2-#4) or in combination with cisplatin (patient #1, see also FIG. 3). […]
# human fibroblasts = experiment: Survival of fibroblast cultures at 80% and 30% confluency; format: cell-based; conditions: 2.5 μM; 30% vs 80% confluency
# Method: as §1, §2
# [3] = test system: canine basal cell carcinoma; format: in vivo, dog
# Description: Differential diagnoses included virus induced lesions such as warts which are caused by papillomaviruses, and are thus an example of anti-microbial/anti-viral activity.
# Mammary carcinoma = experiment: Intratumoral treatment of canine cancer patient, mammary carcinoma; format: in vivo, dog; conditions: Patient #3, NVX-207 alone 10 mg/ml in 2-hydroxypropyl-γ-cyclodextrin
# Method: as §3, §4
# [4] = test system: human hyperkeratotic lesion with an inflammatory component; experiment: Topical treatment of human hyperkeratotic lesion; format: in vivo; conditions: 1% topical solution
# Soft tissue sarcoma = experiment: Intratumoral treatment of canine cancer patient, soft tissue sarcoma; format: in vivo, dog; conditions: Patient #2
# Method: as §3, §4
# [5] = test system: bacteria obtained from the skin surface of an individual; experiment: Filter disk growth inhibition on LB-agar plates; format: cell-based
# Method: 10 mm filter disks (numbered 1 to 4) were soaked in 10 μl of 10.0, 5.0, 2.5, and 1.25 mg/ml of NVX-207, respectively, and placed on LB-Agar plates on which a skin bacterial isolate had been plated. 15 ml of LB/Agar was used for pouring one plate. Control disks were soaked in 10 μl of the corresponding solvent and paced in the center of the plates. LB-Agar plates were then cultivated over night at 30° C. and bacterial growth was monitored by comparing growth inhibition zones around the soaked disks. […]
# Antibacterial effects of NVX-207 were tested against bacteria obtained from the skin surface of an individual. NVX-207 was used either as a cyclodextrin formulation (NVX-207 (at 10 mg/ml final concentration) was formulated in 2-hydroxypropyl-gamma-cyclodextrin (at 150 mg/ml final concentration) in water) (FIG. 6A), or a Tween 80/Ethanol formulation (described in Example 2) (FIG. 6B). Filter disks 1 to 4 were soaked in 10 μl of 10.0, 5.0, 2.5, and 1.25 mg/ml of NVX-207, respectively, and placed on LB-agar plates (total volume of 15 ml LB-agar per plate) on which a skin bacterial isolate had been plated at low density. Control disks placed in the center of the plates were soaked in 10 μl of the corresponding solvent. LB-Agar plates were then cultivated over night at 30° C. and bacterial growth was examined after 18 hours. […]
smiles,measurement,setting,value
"C=C(C)[C@@H]1CC[C@]2(C(=O)OCC(N)(CO)CO)CC[C@]3(C)[C@H](CC[C@@H]4[C@@]5(C)CC[C@H](OC(C)=O)C(C)(C)[C@@H]5CC[C@]43C)[C@@H]12 [NVX-207, 3-O-acetylbetulinic acid-2-amino-3-hydroxy-2-hydroxymethylpropyl ester]",more active against proliferating keratinocytes,human keratinocytes,~6 fold
same,treatment-related inflammation,canine cancer patients,completely prevented
same,more effective in sub-confluent (30%) than nearly confluent (80%) endothelial cells,[1],~5 fold
same,macroscopic skin irritations,pig skin,No macroscopic NVX-207 related skin irritations
same,Tumor response,[2],"SD (SD, stable disease)"
same,more active against proliferating human fibroblasts,human fibroblasts,over 20 fold
same,reduction of lesion,"[3]; 1% topical solution every second to third day, after 3 weeks",about 90%
same,inflammation or infection at the treatment site,"[3]; dog, in vivo",absence of inflammation or infection
same,Tumor response,Mammary carcinoma,"SD (SD, stable disease)"
same,side effects on treated skin,[4],"No deleterious (toxic) effects; also recorded: no reddening, inflammation or any side effects"
same,reduction of lesion,[4]; next day after only one treatment,> 80%
same,"OS, overall survival time",Soft tissue sarcoma,15 months
same,Tumor response,"Soft tissue sarcoma; NVX-207 alone 10 mg/ml in 2-hydroxypropyl-γ-cyclodextrin, intratumoral","PR (PR, partial remission)"
same,estimated concentration at which strong inhibitory effects were seen,"[5]; Tween/Ethanol formulation, assumed distribution volume ~2.5 ml",1 µg/mL and 1.0 µg/mL
same,final concentration at which growth inhibition was seen,"[5]; cyclodextrin formulation, distribution volume approximately 1 ml",~100 µg/mL
